The test system of one data set is MCF-7 cell line. As to the kind of experiment: MTT cytotoxicity assay, MCF-7. The class given is cell-based. The settings on record: Homo sapiens, MCF7, 48 h, mean ± S.D. of three experiments, 50% growth inhibition. The procedure:
(§1) The MTT colorimetric assay is a very sensitive method used to measure the potential cytotoxicity (loss of viable cells) of targeted compounds. […] The drug taxol was used as the reference standard. Cell morphological changes were recorded to determine the cytotoxic effect, and the results are found in Table 1, Figure 3.
(§2) In vitro testing was performed on HepG2 and MCF-7 cell lines to determine the antitumor activity of the newly synthesized chemical compounds. Both cell lines originally came from Egypt’s National Cancer Institute (NCI), housed at Cairo University. At 37 °C with 5% […], the cells were grown in RPMI 1640 containing 10% fetal bovine serum, 50 micrograms per milliliter of streptomycin, and 100 international units per milliliter of penicillin. After trypsinization with 0.05% trypsin-EDTA, cell growth and morphology were evaluated, and passages were made when cells reached 80–90% confluence.
(§3) The MTT assay protocol is described in the Supplementary Materials.
(§4) The MTT assay was used to determine the effects of the newly synthesized compounds on cell viability. In a nutshell, 1 × 10^4 cells/well were seeded in a 96-well plate and allowed to grow for 24 hours. After 24 hours, the original medium was discarded, and a new compounds-containing medium was added. After 48 hours, the media was changed out and 100 μL of MTT (10 μL from (MTT) stock solution (5 mg/ml in PBS) in 100 μL media) was added to each well, and the plates were incubated at 37° C for 4 hours. After adding 100 μL of acidified isopropanol to each well, the formed formazan crystals were dissolved, and the absorbance was read at 570 nm using an ELISA microplate reader (Epoc-2C micro-plate reader, Bio Tek, VT, USA). There were three separate runs of every experiment. Half-maximal inhibitory concentrations (IC50) were determined by fitting sigmoidal dose-response curves.
(§5) GraphPad Prism 8.0 (San Diego, CA, USA) analyzed all results. All results (three independent experiments) were shown as means ± standard deviation. The significance of the differences in the outcomes of all groups was examined using ANOVA and Tukey’s
(Tetrazolium assays rely on reduction of a dye to a coloured formazan, in cell work by metabolically active cells.)

A further data set concerns HepG2 cell line. Description: MTT cytotoxicity assay, HepG2. The class given is cell-based. Conditions: Homo sapiens, 48 h, mean ± S.D. of three experiments, 50% growth inhibition. The procedure: as §1, §2, §3, §4, §5
The target of data set [1] is T1, VEGFR-2 (Homo sapiens, UniProt P35968).
T1 construct: Effects of compounds 5e and 5a on VEGFR-2 and HER2 (µM) in MCF-7 cells compared to control; endogenous in cells; host or cells: MCF-7
T1 sequence (P35968 20-1356): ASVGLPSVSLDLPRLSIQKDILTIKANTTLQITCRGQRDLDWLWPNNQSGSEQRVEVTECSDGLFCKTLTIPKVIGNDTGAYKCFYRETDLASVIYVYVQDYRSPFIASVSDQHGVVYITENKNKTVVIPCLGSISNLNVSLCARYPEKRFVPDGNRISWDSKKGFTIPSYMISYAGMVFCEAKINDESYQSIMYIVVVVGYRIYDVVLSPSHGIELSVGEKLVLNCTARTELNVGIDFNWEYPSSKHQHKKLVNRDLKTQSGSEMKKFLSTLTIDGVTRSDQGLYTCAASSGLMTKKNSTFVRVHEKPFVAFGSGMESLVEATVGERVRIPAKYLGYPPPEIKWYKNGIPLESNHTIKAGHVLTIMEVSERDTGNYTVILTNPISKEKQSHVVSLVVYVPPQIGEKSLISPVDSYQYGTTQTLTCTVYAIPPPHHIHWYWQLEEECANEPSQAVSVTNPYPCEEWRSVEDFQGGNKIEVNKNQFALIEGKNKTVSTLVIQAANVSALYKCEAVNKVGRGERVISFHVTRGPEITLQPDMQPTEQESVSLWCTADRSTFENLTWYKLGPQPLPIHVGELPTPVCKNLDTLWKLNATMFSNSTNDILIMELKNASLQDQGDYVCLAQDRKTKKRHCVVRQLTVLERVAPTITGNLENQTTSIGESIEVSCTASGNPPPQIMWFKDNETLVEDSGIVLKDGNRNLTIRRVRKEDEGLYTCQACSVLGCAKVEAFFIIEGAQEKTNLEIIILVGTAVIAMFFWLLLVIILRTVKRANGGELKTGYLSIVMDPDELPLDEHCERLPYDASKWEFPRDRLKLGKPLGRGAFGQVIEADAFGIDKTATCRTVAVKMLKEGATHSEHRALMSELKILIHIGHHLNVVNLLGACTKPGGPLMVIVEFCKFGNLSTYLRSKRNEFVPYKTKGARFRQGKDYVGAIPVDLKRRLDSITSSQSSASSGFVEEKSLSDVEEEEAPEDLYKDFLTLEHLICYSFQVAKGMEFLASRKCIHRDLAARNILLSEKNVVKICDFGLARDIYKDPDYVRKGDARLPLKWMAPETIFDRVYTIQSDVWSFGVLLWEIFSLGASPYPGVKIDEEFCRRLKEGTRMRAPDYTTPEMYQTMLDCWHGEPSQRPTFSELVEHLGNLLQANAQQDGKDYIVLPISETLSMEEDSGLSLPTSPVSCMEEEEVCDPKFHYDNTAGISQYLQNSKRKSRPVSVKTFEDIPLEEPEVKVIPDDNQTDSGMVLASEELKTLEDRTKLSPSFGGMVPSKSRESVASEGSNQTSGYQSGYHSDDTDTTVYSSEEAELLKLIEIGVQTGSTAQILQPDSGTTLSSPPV
As to the kind of experiment: In vitro VEGFR-2 inhibition assay. The class given is biochemical. The settings on record: mean of three replicates ± S.D. The procedure:
(§6) Assessment was performed using a VEGFR-2 (human) SimpleStep ELISA kit (ab213476) and HER-2 (human) SimpleStep ELISA kit (ab100510) (abcam® Cambridge, CB2 0AX, Cambridge, UK) according to manufacturer instructions. In brief, tissue culture supernatant was added to the anti-tag antibody-coated wells, followed by the secondary antibody mix. To remove unbound material, the wells were washed after incubation. […] The final step in the transformation from blue to yellow was the addition of a stop solution, which halted the reaction. The intensity of the signal generated at 450 nm was proportional to the amount of bound analyte.

The target of data set [2] is T2, HER-2 (Homo sapiens, UniProt P04626).
T2 construct: Effects of compounds 5e and 5a on VEGFR-2 and HER2 (µM) in MCF-7 cells compared to control; endogenous in cells; host or cells: MCF-7
T2 sequence (P04626 23-1255): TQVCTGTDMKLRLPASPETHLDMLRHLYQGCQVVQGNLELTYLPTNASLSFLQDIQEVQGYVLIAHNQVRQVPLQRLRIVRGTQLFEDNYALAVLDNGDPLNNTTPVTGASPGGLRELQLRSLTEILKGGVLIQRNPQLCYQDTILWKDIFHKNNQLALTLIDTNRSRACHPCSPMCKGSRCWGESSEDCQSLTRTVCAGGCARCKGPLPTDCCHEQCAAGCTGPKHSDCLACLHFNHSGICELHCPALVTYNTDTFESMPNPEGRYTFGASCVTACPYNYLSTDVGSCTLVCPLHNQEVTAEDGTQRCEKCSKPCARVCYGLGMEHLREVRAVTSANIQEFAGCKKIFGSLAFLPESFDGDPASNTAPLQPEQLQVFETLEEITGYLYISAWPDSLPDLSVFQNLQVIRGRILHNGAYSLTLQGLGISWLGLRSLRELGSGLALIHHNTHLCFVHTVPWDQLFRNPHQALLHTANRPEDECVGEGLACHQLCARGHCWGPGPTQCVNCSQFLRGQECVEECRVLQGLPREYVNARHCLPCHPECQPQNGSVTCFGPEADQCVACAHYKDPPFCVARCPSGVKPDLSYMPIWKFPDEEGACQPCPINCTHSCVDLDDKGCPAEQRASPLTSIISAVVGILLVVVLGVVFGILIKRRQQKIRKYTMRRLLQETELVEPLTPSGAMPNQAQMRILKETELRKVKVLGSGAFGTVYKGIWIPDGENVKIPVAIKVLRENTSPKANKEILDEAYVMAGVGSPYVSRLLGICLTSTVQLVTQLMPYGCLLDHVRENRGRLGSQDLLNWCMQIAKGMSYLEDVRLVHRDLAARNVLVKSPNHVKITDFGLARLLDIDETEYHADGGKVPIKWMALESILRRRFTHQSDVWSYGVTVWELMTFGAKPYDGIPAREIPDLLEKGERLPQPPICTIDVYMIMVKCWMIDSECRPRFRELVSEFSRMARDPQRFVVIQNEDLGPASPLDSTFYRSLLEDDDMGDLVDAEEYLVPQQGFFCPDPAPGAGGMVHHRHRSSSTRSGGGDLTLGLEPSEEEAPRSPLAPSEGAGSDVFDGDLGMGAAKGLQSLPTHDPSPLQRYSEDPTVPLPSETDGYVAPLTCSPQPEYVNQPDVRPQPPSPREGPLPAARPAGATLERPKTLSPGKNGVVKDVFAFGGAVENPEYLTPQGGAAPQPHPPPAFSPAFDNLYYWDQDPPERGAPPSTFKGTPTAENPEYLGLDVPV
Description: In vitro HER-2 inhibition assay. The class given is biochemical. Conditions: mean of three replicates ± S.D. The procedure: as §6

In data set [3] the test system is VEGFR-2. As to the kind of experiment: VEGFR-2 expression level in MCF-7 cells (ELISA). The class given is cell-based, human. The settings on record: untreated control 1573.00 ± 36.9. The procedure:
(§7) In this study, we further explored the impact of cyanopyridones 5a and 5e on VEGFR-2 and HER-2 expression levels in MCF-7 cells (Figure 5). The results disclosed that both 5a and 5e had interesting profiles for reduction of VEGFR-2/HER-2 expression levels compared to the control cells and the reference drug taxol.
as §6
For orientation: An ELISA detects its analyte on a solid surface through an enzyme-linked reagent.

Data set [4] has as its system HER-2. As to the kind of experiment: HER-2 expression level in MCF-7 cells (ELISA). The class given is cell-based, human. The settings on record: untreated control 559.00 ± 33.9. The procedure: as §7, §6
The subject of the next data set is MCF-7 breast cancer. Set-up: method as in PMID 26729087. Conditions: cited from earlier work.
Data set [5] deals with NCI-H460 non-small cell lung cancer. On the set-up: method as in PMID 26729087. The settings on record: cited from earlier work.
The next data set has as its system SF-268 CNS cancer. Set-up: method as in PMID 26729087. Conditions: cited from earlier work.
Data set [6] concerns HER-2. On the set-up: method as in doi:10.1039/C5MD00602C. The settings on record: reported by Pfizer; cited from earlier work.

Structures are written as SMILES. ≈ marks a conversion by molar mass, not a printed value. Where “and” joins values, the source holds several entries; their conditions need not be identical. Identical values can stand only once.

As usually defined, the IC50 is the point on the concentration scale where inhibition reaches its midpoint. A higher IC50 goes with lower potency. In general, melting point refers to the temperature, or range, at which the solid turns liquid. Take `N#Cc1c(-c2ccccc2)c(C#N)c(=O)n(-c2cccc(C(F)(F)F)c2)c1N` [Compound 5a]: the melting point is 280 to 282 °C. The IC50 in the data set on MCF-7 cell line came to 1.77 ± 0.1 µM. The compound further gave an IC50 with HepG2 cell line of 2.71 ± 0.15 µM. Moreover, on VEGFR-2 [1], half-maximal inhibition (IC50) required 0.217 ± 0.02 µM. Besides, at HER-2 [2], the midpoint of inhibition, the IC50, lay at 0.168 ± 0.009 µM. Further, the “VEGFR-2 (pg/mL) expression level” value in the data set with VEGFR-2 [3] is 884.30 pg/mL and 884.30 ± 29.3 pg/mL. Moreover, the “HER-2 (pg/mL) expression level” value in the data set on HER-2 [4] is 299.50 pg/mL and 299.50 ± 4.7 pg/mL.

In turn, `N#Cc1c(-c2ccc(O)cc2)c(C#N)c(=O)n(-c2cccc(C(F)(F)F)c2)c1N` [Compound 5b] displayed a melting point of 330 to 332 °C. The compound further came in with an IC50 with MCF-7 cell line of 24.7 ± 1.33 µM. The IC50 in the data set with HepG2 cell line was 11.4 ± 0.61 µM.

Compound `N#Cc1c(-c2ccc([N+](=O)[O-])cc2)c(C#N)c(=O)n(-c2cccc(C(F)(F)F)c2)c1N` [Compound 5c] came in with a melting point of 229 to 230 °C. In the data set on MCF-7 cell line, the IC50 stood at 20.2 ± 1.09 µM. Moreover, inhibition with HepG2 cell line was half-maximal at 4.01 ± 0.22 µM (IC50).

Take `N#Cc1c(-c2ccc(Cl)cc2)c(C#N)c(=O)n(-c2cccc(C(F)(F)F)c2)c1N` [Compound 5d]: the melting point lay within 324 to 326 °C. In addition, the IC50 with MCF-7 cell line was 13.7 ± 0.74 µM. Moreover, the midpoint of inhibition with HepG2 cell line, the IC50, lay at 22.5 ± 1.22 µM.

Compound `N#Cc1c(-c2ccc(Cl)cc2Cl)c(C#N)c(=O)n(-c2cccc(C(F)(F)F)c2)c1N` [Compound 5e] displayed a melting point of 239 to 241 °C. Moreover, the IC50 in the data set on MCF-7 cell line worked out at 1.39 ± 0.08 µM. In the data set with HepG2 cell line, this compound returned an IC50 of 10.7 ± 0.58 µM. This compound yielded an IC50 on VEGFR-2 [1] of 0.124 ± 0.011 µM. Also, at HER-2 [2], the IC50 was 0.077 ± 0.003 µM. Further, in the data set with VEGFR-2 [3], the “VEGFR-2 (pg/mL) expression level” value was 510.00 pg/mL and 510.00 ± 20.2 pg/mL. The “HER-2 (pg/mL) expression level” value in the data set on HER-2 [4] is 148.60 pg/mL and 148.60 ± 5.5 pg/mL.

For the compound `COc1cc(-c2c(C#N)c(N)n(-c3cccc(C(F)(F)F)c3)c(=O)c2C#N)cc(OC)c1OC` [Compound 5f], the melting point was 195 to 197 °C. Moreover, in the data set with MCF-7 cell line, half-maximal inhibition (IC50) required 54.2 ± 2.93 µM. Further, the IC50 in the data set with HepG2 cell line came out at 40.6 ± 2.19 µM.

`N#Cc1c(-c2ccc(O)cc2)c2c(=O)[nH]cnc2n(-c2cccc(C(F)(F)F)c2)c1=O` [Compound 6a] registered a melting point of 300 to 302 °C. In the data set on HepG2 cell line, this compound returned an IC50 of 7.27 ± 0.39 µM.

The compound `N#Cc1c(-c2ccc(Cl)cc2)c2c(=O)[nH]cnc2n(-c2cccc(C(F)(F)F)c2)c1=O` [Compound 6b] came in with a melting point of 350 to 352 °C. Further, half-maximal inhibition with MCF-7 cell line (IC50) was put at 14 ± 0.76 µM. In addition, in the data set with HepG2 cell line, half-maximal inhibition (IC50) required 2.68 ± 0.14 µM.

As for `Cc1nc2c(c(-c3ccccc3)c(C#N)c(=O)n2-c2cccc(C(F)(F)F)c2)c(=O)[nH]1` [Compound 7a], the melting point was in the range of 308 to 310 °C. The IC50 in the data set on MCF-7 cell line worked out at 10.7 ± 0.58 µM. In the data set on HepG2 cell line, this compound had an IC50 of 16.3 ± 0.88 µM.

Compound `Cc1nc2c(c(-c3ccc(Cl)cc3)c(C#N)c(=O)n2-c2cccc(C(F)(F)F)c2)c(=O)[nH]1` [Compound 7b] showed a melting point of 330 to 332 °C. This compound returned an IC50 in the data set on MCF-7 cell line of 6.22 ± 0.34 µM. Further, the IC50 with HepG2 cell line is 19.6 ± 1.06 µM.

Turning to `Cc1nc2c(c(-c3ccc(Cl)cc3Cl)c(C#N)c(=O)n2-c2cccc(C(F)(F)F)c2)c(=O)[nH]1` [Compound 7c], the melting point lay in the range of 333 to 335 °C. Moreover, in the data set with MCF-7 cell line, the IC50 was 9.28 ± 0.5 µM. For the same compound, the IC50 in the data set with HepG2 cell line came out at 5.04 ± 0.27 µM.

`CC(=O)Oc1ccc(-c2c(C#N)c(=O)n(-c3cccc(C(F)(F)F)c3)c3nc(C)[nH]c(=O)c23)cc1` [Compound 7d]: the melting point was in the range of 320 to 322 °C. Half-maximal inhibition in the data set with MCF-7 cell line (IC50) was put at 43.4 ± 2.35 µM. In the data set on HepG2 cell line, this compound displayed an IC50 of 52.5 ± 2.84 µM.

For the compound `COc1cc(-c2c(C#N)c(=O)n(-c3cccc(C(F)(F)F)c3)c3nc(C)[nH]c(=O)c23)cc(OC)c1OC` [Compound 7e], the melting point was in the range of 150 to 152 °C. In the data set on MCF-7 cell line, this compound returned an IC50 of 27.8 ± 1.5 µM. Also, half-maximal inhibition in the data set on HepG2 cell line (IC50) required 71.9 ± 3.88 µM.

On to `CCC(=O)COc1nc(-c2cc(Cl)ccc2Cl)cc(-c2ccc(F)cc2)c1C#N` [III], for which the “IC50 cell growth inhibition, MCF-7” value in the data set on MCF-7 breast cancer is 0.02 µg/mL (≈ 0.0466 µM). For the same compound, in data set [5], the “IC50 cell growth inhibition, NCI-H460” value was 0.01 µg/mL (≈ 0.0233 µM). Moreover, the “IC50 cell growth inhibition, SF-268” value in the data set on SF-268 CNS cancer is given as 0.02 µg/mL (≈ 0.0466 µM).

With `CC(=O)O[C@H]1C(=O)[C@@]2(C)[C@H]([C@H](OC(=O)c3ccccc3)[C@]3(O)C[C@H](OC(=O)[C@H](O)[C@@H](NC(=O)c4ccccc4)c4ccccc4)C(C)=C1C3(C)C)[C@]1(OC(C)=O)CO[C@@H]1C[C@@H]2O` [Taxol, paclitaxel, reference compound], the IC50 in the data set with MCF-7 cell line was found to be 8.48 ± 0.46 µM; in the data set with HepG2 cell line, 14.6 ± 0.79 µM. Further, the “VEGFR-2 (pg/mL) expression level” value in the data set on VEGFR-2 [3] was determined as 660.10 ± 31.4 pg/mL. Besides, the “HER-2 (pg/mL) expression level” value in the data set on HER-2 [4] was determined as 199.10 ± 8.6 pg/mL.

Consider `COC(=O)NCC#Cc1ccc2ncnc(Nc3ccc(Oc4cccc(C)n4)c(C)c3)c2c1` [V], for which the anti-HER-2 activity entry with HER-2 [6] is given as “lower than 42 nM”.

The values are drawn from paper PMC9655118, “Identification of Novel Cyanopyridones and Pyrido[2,3-d]pyrimidines as Anticancer Agents with Dual VEGFR-2/HER-2 Inhibitory Action: Synthesis, Biological Evaluation and Molecular Docking Studies” (Pharmaceuticals, 2022).
